Results taken from US9161893B2, “Use, as antidandruff agent, of (ethoxyhydroxyphenyl) alkyl ketone or ethoxyhydroxyalkylphenol compounds” (L'OREAL, priority 2011, dated 2015).

Tests used:
[1] = tested on: Malassezia restricta; experiment: Antifungal growth inhibition on MLNA agar, scored against growth control; assay type: cell-based; settings: for Inhibition score Malassezia restricta: MLNA agar, at least 5 days at 30° C.
Experimental: (§1) A solution containing 2% by weight of test compound is prepared in “modified Leeming and Notman liquid (MLNA)” in the following way: 0.2048 g of test compound is weighed out into qs for 10 ml of modified Leeming and Notman liquid; solubilization is carried out by heating and the use of ultrasound. The solutions of test product are twice as concentrated as the final test concentration, in order to take into account the dilution when they are brought into contact with the Malassezia suspension. One of the previously prepared solutions at 2% is diluted to ½ in modified Leeming and Notman liquid, so as to finally obtain a test concentration of 0.5%; the other solution is used as it is (at 2%) so as to finally obtain a test concentration of 1%. The Malassezia strains are brought into contact according to the table below: [table] The mixture is stirred and deposited at the surface of the MLNA agar. It is spread, with a sterile scraper, over the entire surface before recovering the excess. It is left to incubate for at least 5 days at 30° C. The antifungal effect of the compound is evaluated via the absence of growth of the Malassezia strain tested. This inhibition is evaluated relative to the growth control. The inhibitions are scored from 0 to 3 via assessment of the density of the culture at the surface of the agar, in comparison with the growth control, in the following way: [table]

[2] = tested on: Malassezia globosa; experiment: as above; assay type: cell-based; settings: for Inhibition score Malassezia globosa: MLNA agar, at least 5 days at 30° C.
Experimental: as §1

CCOc1cc(CCC(C)=O)ccc1O [Compound tested]
Growth inhibition of Malassezia restricta (in words) ([1]; compound at 0.5%): very effective | Growth inhibition of Malassezia restricta (in words) ([1]; compound at 1%): completely inhibits the growth | Inhibition score Malassezia restricta ([1]; test concentration 0.5%): 3 (100% No growth) | Inhibition score Malassezia restricta ([1]; test concentration 1%): 3 (100% No growth) | Growth inhibition of Malassezia globosa (in words) ([2]; compound at 0.5%): weakly | Growth inhibition of Malassezia globosa (in words) ([2]; compound at 1%): completely inhibits the growth | Inhibition score Malassezia globosa ([2]; test concentration 0.5%): 1 (25% Growth < in the control dish) | Inhibition score Malassezia globosa ([2]; test concentration 1%): 3 (100% No growth)
